Article PMC10145285, “Diverse Biological Activity of Benzofuroxan/Sterically Hindered Phenols Hybrids” (Pharmaceuticals, 2023)
Converted amounts (≈) assume the structure as drawn.

Legend:
[1] = system: PC3; experiment: cells; type: cell-based; details: Homo sapiens, PC-3, 48 h, read-out: IC50, PC3
[2] = system: MCF-7; experiment: cells; type: cell-based, human; details: for IC50: Homo sapiens, MCF7, 48 h, read-out: IC50, MCF-7
[3] = system: T98G; experiment: cells; type: cell-based; details: Homo sapiens, 48 h, read-out: IC50, T98G
[4] = system: A375; experiment: cells; type: cell-based; details: Homo sapiens, A-375, 48 h, read-out: IC50, A375
[5] = system: WI38; experiment: cells; type: cell-based; details: Homo sapiens, WI-38, 48 h, read-out: IC50, WI38
[6] = system: Staphylococcus aureus ATCC 6538P FDA 209P (Sa); experiment: Antimicrobial serial microdilution, Sa; type: cell-based; details: for MIC: read-out: Minimum Inhibitory Concentration (MIC), Sa
[7] = system: Bacillus cereus ATCC 10702 (Bc); experiment: Antimicrobial serial microdilution, Bc; type: cell-based; details: for MIC: ATCC10702, read-out: Minimum Inhibitory Concentration (MIC), Bc
[8] = system: Enterococcus faecalis ATCC 29212 (Ef); experiment: Antimicrobial serial microdilution, Ef; type: cell-based; details: for MIC: Enterococcus faecalis, ATCC29212, read-out: Minimum Inhibitory Concentration (MIC), Ef
[9] = system: MRSA-1; experiment: Antimicrobial serial microdilution, MRSA-1; type: cell-based, Staphylococcus aureus; details: for MIC: read-out: Minimum Inhibitory Concentration (MIC), MRSA-1
[10] = system: MRSA-2; experiment: Antimicrobial serial microdilution, MRSA-2; type: cell-based, Staphylococcus aureus; details: for MIC: read-out: Minimum Inhibitory Concentration (MIC), MRSA-2
[11] = system: M-HeLa cells; experiment: Intracellular ROS, CellROX Deep Red flow cytometry; type: cell-based, human; details: concentration equal to IC50 cytotoxicity on M-HeLa, 48 h; result in words
Description: Apoptosis can be induced in various ways, including an increase in the production of reactive oxygen species (ROS) in the cell, with subsequent oxidative stress and destruction of membrane lipids, proteins and nucleic acids. Thus, chemical compounds that disturb the redox balance and lead to the production and accumulation of ROS are potential agents for targeting the transformed cells. To understand the possible synergy between the different components of these hybrid agents, we compared the ROS production for compounds 4c, 5d, starting phenols 2c, 2d and furoxan 3 at the concentration of IC50 cytotoxicity on M-HeLa cells (Figure 4). A significant increase in CellROX® Deep Red fluorescence intensity indicates an increase in ROS production.
Detection of Intracellular ROS. […] ROS generation was investigated using flow cytometry assay and CellROX® Deep Red flow cytometry kit. For this M-HeLa cells were harvested at 2000 rpm for 5 min and then washed twice with ice-cold PBS, followed by resuspension in 0.1 mL of medium without FBS, to which was added 0.2 μL of CellROX® Deep Red and incubated at 37 °C for 30 min. After three times washing the cells and suspending them in PBS, the production of ROS in the cells was immediately monitored using flow cytometer (Guava easy Cyte, Merck, Rahway, NJ, USA).

[12] = system: HuTu 80, MCF-7 and human cervical carcinoma cell lines; experiment: cells; type: cell-based; details: 120 h, read-out: IC50 range over HuTu 80, MCF-7 and human cervical carcinoma lines
[13] = system: M-HeLa
[14] = system: HuTu 80; experiment: cells; details: Homo sapiens, HuTu80, 48 h, read-out: IC50, HuTu 80
[15] = system: PANC-1; experiment: cells; details: Homo sapiens, PANC-1, 48 h, read-out: IC50, PANC-1
[16] = system: M-HeLa; experiment: cells; details: Homo sapiens, 48 h, read-out: IC50, M-HeLa
[17] = system: A549; experiment: cells; details: Homo sapiens, A549, 48 h, read-out: IC50, A549
[18] = system: Chang Liver; experiment: cells; details: Homo sapiens, 48 h, read-out: IC50, Chang Liver
[19] = 500 ng/mL spike, sampled 5, 15, 30 min, 1 and 2 hours; result in words

CC(C)OP(=O)(OC(C)C)C(c1cc(C(C)(C)C)c(O)c(C(C)(C)C)c1)c1ccc(Nc2c([N+](=O)[O-])cc([N+](=O)[O-])c3no[n+]([O-])c23)nc1N (stereo not drawn) [4c, 7-((6-amino-5-((3,5-di-tert-butyl-4-hydroxyphenyl)(diisopropoxyphosphoryl)methyl)pyridin-2-yl)amino)-4,6-dinitrobenzo[c][1,2,5]oxadiazole 1-oxide]
IC50 [1]: 1.2 ± 1 µM
Times more active than the starting SHP, MCF-7 [2]: 20 times
IC50 [2]: 1.1 ± 0.1 µM
IC50 [3]: 2.2 ± 0.1 µM
IC50 [4]: 2.9 ± 0.2 µM
IC50 [5]: 2 ± 0.1 µM
Minimum Inhibitory Concentration (MIC), Sa [6]: -
Minimum Inhibitory Concentration (MIC), Bc [7]: -
Minimum Inhibitory Concentration (MIC), Ef [8]: -
Minimum Inhibitory Concentration (MIC), MRSA-1 ([9]; serial microdilution, strain resistant to β-lactams and fluoroquinolones): -
Minimum Inhibitory Concentration (MIC), MRSA-2 ([10]; serial microdilution, strain resistant only to β-lactams): -
ROS production (CellROX Deep Red fluorescence intensity) [11]: ROS production significantly exceeds that for the original phenol 2c and furoxan 3
IC50 [12]: 0.9 to 5.9 µM
Times more active than the starting SHP, M-HeLa [13]: 40 times
IC50 [14]: 0.9 ± 0.07 µM
IC50 [15]: 11.2 ± 0.9 µM
IC50 [16]: 0.9 ± 0.07 µM
IC50 [17]: 0.9 ± 0.08 µM
IC50 [18]: 2.1 ± 0.7 µM

CC(C)OP(=O)(OC(C)C)C(c1cc(C(C)(C)C)c(O)c(C(C)(C)C)c1)c1ccc(Nc2c([N+](=O)[O-])cc([N+](=O)[O-])c3no[n+]([O-])c23)nc1Nc1c([N+](=O)[O-])cc([N+](=O)[O-])c2no[n+]([O-])c12 (stereo not drawn) [5c, 7,7’-((3-((3,5-di-tert-butyl-4-hydroxyphenyl)(diisopropoxyphosphoryl)methyl)pyridine-2,6-diyl)bis(azanediyl))bis(4,6-dinitrobenzo[c][1,2,5]oxadiazole 1-oxide)]
IC50 [1]: 6.8 ± 0.5 µM
IC50 [2]: 4.5 ± 0.4 µM
IC50 [3]: 7.7 ± 0.6 µM
IC50 [4]: 9 ± 0.8 µM
IC50 [5]: 5 ± 0.4 µM
Minimum bactericidal and fungicidal concentrations (MBC), (MFC), Sa [6]: -
MIC ([6]; Staphylococcus aureus): 31.3 ± 2.3 µg/mL (≈ 33.3 µM)
MIC ([7]; Bacillus cereus): 31.3 ± 2.5 µg/mL (≈ 33.3 µM)
MBC ([7]; Bacillus cereus, ATCC10702, read-out: Minimum bactericidal and fungicidal concentrations (MBC), (MFC), Bc): 250 ± 20 µg/mL (≈ 266 µM)
Minimum bactericidal and fungicidal concentrations (MBC), (MFC), Ef [8]: -
MIC [8]: 62.5 ± 5.3 µg/mL (≈ 66.5 µM)
Minimum bactericidal and fungicidal concentrations (MBC), (MFC), MRSA-1 [9]: -
MIC ([9]; Staphylococcus aureus, MRSA): 62.5 ± 5.5 µg/mL (≈ 66.5 µM)
Minimum bactericidal and fungicidal concentrations (MBC), (MFC), MRSA-2 [10]: -
MIC ([10]; Staphylococcus aureus, MRSA): 250 ± 20 µg/mL (≈ 266 µM)
IC50 [14]: 3.9 ± 0.3 µM
IC50 [15]: 5 ± 0.3 µM
IC50 [16]: 2.4 ± 0.2 µM
IC50 [17]: 7.7 ± 0.6 µM
IC50 [18]: 4.1 ± 0.8 µM

CC(C)(C)c1cc(C(c2ccc(Nc3c([N+](=O)[O-])cc([N+](=O)[O-])c4no[n+]([O-])c34)nc2Nc2c([N+](=O)[O-])cc([N+](=O)[O-])c3no[n+]([O-])c23)P(=O)(Oc2ccccc2)Oc2ccccc2)cc(C(C)(C)C)c1O (stereo not drawn) [5d, 7,7’-((3-((3,5-di-tert-butyl-4-hydroxyphenyl)(diphenoxyphosphoryl)methyl)pyridine-2,6-diyl)bis(azanediyl))bis(4,6-dinitrobenzo[c][1,2,5]oxadiazole 1-oxide)]
IC50 [1]: 5.9 ± 0.4 µM
Times more active than the starting SHP, MCF-7 [2]: 7.6 times
IC50 [2]: 2.1 µM
IC50 [3]: 4.8 ± 0.4 µM
IC50 [4]: 5.9 ± 0.5 µM
IC50 [5]: 8.4 ± 0.7 µM
MIC ([6]; Staphylococcus aureus): 15.6 ± 1.2 µg/mL (≈ 15.5 µM)
MBC ([6]; Staphylococcus aureus, read-out: Minimum bactericidal and fungicidal concentrations (MBC), (MFC), Sa): 125 ± 10 µg/mL (≈ 124 µM)
Minimum bactericidal and fungicidal concentrations (MBC), (MFC), Bc [7]: -
MIC ([7]; Bacillus cereus): 62.5 ± 5.4 µg/mL (≈ 62 µM)
Minimum bactericidal and fungicidal concentrations (MBC), (MFC), Ef [8]: -
MIC [8]: 62.5 ± 5.2 µg/mL (≈ 62 µM)
MIC ([9]; Staphylococcus aureus, MRSA): 62.5 ± 5.3 µg/mL (≈ 62 µM)
MBC ([9]; Staphylococcus aureus, MRSA, read-out: Minimum bactericidal and fungicidal concentrations (MBC), (MFC), MRSA-1): 250 ± 20 µg/mL (≈ 248 µM)
MIC ([10]; Staphylococcus aureus, MRSA): 250 ± 19 µg/mL (≈ 248 µM)
MBC ([10]; Staphylococcus aureus, MRSA, read-out: Minimum bactericidal and fungicidal concentrations (MBC), (MFC), MRSA-2): 250 ± 19 µg/mL (≈ 248 µM)
IC50 [12]: 0.9 to 5.9 µM
Times more active than the starting SHP, M-HeLa [13]: 3.7 times
IC50 [14]: 4.9 ± 0.3 µM
Biostability in whole mice blood (peak area relative to 5 min value) [19]: metabolized, but its rate is quite low
IC50 [15]: 2.8 µM
IC50 [16]: 2 µM
IC50 [17]: 5.2 ± 0.4 µM
IC50 [18]: 9.2 ± 1.9 µM
